# From patent US20080012929A1, “AZO DYE, HEAT-SENSITIVE TRANSFER RECORDING INK SHEET, HEAT-SENSITIVE TRANSFER RECORDING METHOD, COLOR TONER, INKJET INK AND COLOR FILTER” (FUJIFILM Corporation, priority 2006, published 2008)
# Experiments:
# [1] = Light stability (fastness to light) of the dye image under Xenon light irradiation; format: physicochemical; details: residual ratio of Status A reflection density (initial 1.0) after Xenon light (17000 lux) for 7 days
# Method: Next, each of the thus-image-recorded heat-sensitive transfer image-receiving materials was subjected to irradiation with Xenon light (17000 lux) for 7 days, to examine light stability (fastness to light) of the dye image. Status A reflection densities after irradiation were measured in the portions indicating Status A reflection density of 1.0, and a stability of the image was evaluated in terms of a residual ratio (percentage) based on the reflection density before irradiation, according to the following three grades: • A: 80% or more, but 100% or less • B: 60% or more, but less than 80% • C: less than 60%
# [2] = Solubility of dye when preparing the ink sheet dye-providing layer-coating composition; format: physicochemical; parameters: key: A: the dye easily dissolves; B: the dye dissolves; C: the dye is sparingly soluble, but dissolves; details: methyl ethyl ketone/toluene (1/1), polyvinylbutyral resin
# Method: A polyester film of 6.0 μm in thickness (trade name: Lumirror, manufactured by Toray Industries, Inc.), a back surface of which had been subjected to a heat resistant lubricating treatment with a 1 μm thick thermosetting acrylic resin, was used as a support. On the front surface of the film, the following dye-providing layer-coating composition was coated by a wire bar coating so that a dry thinness of the dye-providing layer became 1 μm. Thus, Ink sheet 1 was prepared.
# Solubility of these dyes contained in these ink sheets were evaluated according to the following three grades: • A: the dye easily dissolves. • B: the dye dissolves. • C: the dye is sparingly soluble, but dissolves.
compound,measurement,setting,value
CCCCCn1nc(C(C)(C)C)c(N=Nc2ccc([N+](=O)[O-])cc2)c1N [(5)],Light fastness,[1],"A (80% or more, but 100% or less)"
same,Solubility of dye,[2],A
CC(C)Cn1nc(C(C)(C)C)c(N=Nc2ccc([N+](=O)[O-])cc2)c1N [(7)],Light fastness,[1],"A (80% or more, but 100% or less)"
same,Solubility of dye,[2],A
CCC(C)n1nc(C(C)(C)C)c(N=Nc2ccc([N+](=O)[O-])cc2)c1N (stereo not drawn) [(8)],Light fastness,[1],"A (80% or more, but 100% or less)"
same,Solubility of dye,[2],A
CC(C)CCn1nc(C(C)(C)C)c(N=Nc2ccc([N+](=O)[O-])cc2)c1N [(9)],Light fastness,[1],"A (80% or more, but 100% or less)"
same,Solubility of dye,[2],A
"CCN(CCOc1ccc(C2CCCCC2)cc1)c1ccc(C=C(C#N)C#N)c(C)c1 [Dye for Comparison 2, reference compound]",Light fastness,[1],C (less than 60%)
same,Solubility of dye,[2],A
"CCCCN(CCCC)C(=O)c1ccc2c(c1)C(=O)C(c1nc3ccc(C(C)C)cc3cc1O)C2=O (stereo not drawn) [Dye for Comparison 3, reference compound]",Light fastness,[1],"A (80% or more, but 100% or less)"
same,Solubility of dye,[2],B
